Reference: patent US7691382B2, “Antiviral polypeptides comprising tandem repeats of APOE 141-149 and variants thereof” (priority 2003, dated 2010)
Values joined by “and” are separate entries in the source; they are usually repeats but may differ in a detail not shown here. Equal values may be shown once. Read-outs that look alike come from different tables or passages of the source. Peptide text beside a SMILES is read from it.

Experiments:
[1] = tested on: HIV-1; conditions: for activity against HIV, significance by ANOVA (in words): FIG. 3, acutely infected U937 cells; for reduction in infectivity (HIV): at 20 μM; for reduction in infectivity (HIV) / % Decrease in HIV p24 Production, Mean ± sd / % Decrease in HIV p24 Production, Exp. 1-3: U937 cells, 7 days
Protocol: The assay was carried out by incubating HIV infected U937 cells in the presence of various levels of peptide for 7 days, followed by assay for levels of the HIV protein p24 in the cells using an Enzyme Linked Immunoabsorbant Assay (ELISA) technique.

[2] = tested on: HSV1; test: HSV1 plaque formation in Vero cells (Example 1); assay type: cell-based, Human herpes simplex virus type 1; conditions: for HSV1 plaque formation in Vero cells, plaque count, wells 1-4: 1 hour; for HSV1 plaque formation in Vero cells, Mean ± sd: untreated 107 ± 14.2
Protocol: FIG. 1 and table 1 show typical results for the test for anti-HSV1 activity. The assay involved treating confluent Vero cells in 24-well plates with medium containing virus and varying amounts of peptide for one hour, followed by removal of this inoculum, and addition of viscous ‘overlay’ medium, containing 0.2% high viscosity carboxymethylcellulose. The overlay medium only allows infection of those cells immediately adjacent to an infected cell. After 2 days incubation and then fixation and staining, small patches of infected cells (or ‘plaques’) are visible, which are counted. Each of these corresponds to the infection of a single cell during the one hour inoculation. ApoE141-149dp produced a 40% reduction in plaque number at a concentration of around 20 μM. Note the peptide was only present in the experimental system for 1 hour.

[3] = tested on: HSV1; assay type: cell-based, Human herpes simplex virus type 1; conditions: for efficacy for reducing HSV1 infectivity (in words): Examples 2 and 3
How it was run: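 Plaque reduction in Vero monolayers: ~100 pfu HSV1 pre-mixed 10 min at 37 °C with acetylated/amidated peptides in 0.5% FCS medium, inoculated 60–80 min, then carboxymethylcellulose overlay for 22 or 40 h. Plaques counted after fixing and carbol fuchsin staining; IC50 from % of control versus peptide concentration.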

[4] = tested on: HSV2; test: HSV2 plaque formation in HEp-2 cells (Example 1); assay type: cell-based, Human herpes simplex virus type 2; conditions: for HSV2 plaque formation in HEp-2 cells, plaque count, wells 1-4: 1 hour; for HSV2 plaque formation in HEp-2 cells, Mean ± sd: untreated 152 ± 10.7
Protocol: FIG. 2 and table 2 show typical results for the test for anti-HSV2 activity. The assay was carried out as for the anti-HSV1 assay, except Hep-2 cells were used rather than Vero cells. ApoE141-149dp produced a 50% reduction in plaque number at a concentration of around 20 μM. Again note that the peptide was only present in the experimental system for 1 hour.

[5] = tested on: HSV2 clinical isolates; assay type: cell-based, Human herpes simplex virus type 2
Protocol: Plaque assays were performed. The methodology was as described in previous Examples for HSV1 plaque assays (including usage of Vero cells) except HSV2 clinical isolates (provided by Prof. Anthony Hart of Liverpool University) were employed instead.

[6] = at a concentration of around 20 μM, peptide present 1 hour
[7] = peptide 5 μM in virus inoculum, listed as ApoE141-149dp
[8] = peptide 10 μM in virus inoculum, listed as ApoE141-149dp
[9] = peptide 20 μM in virus inoculum, listed as ApoE141-149dp
[10] = peptide 30 μM in virus inoculum, listed as ApoE141-149dp
[11] = peptide 40 μM in virus inoculum, listed as ApoE141-149dp
[12] = peptide 10 μM in virus inoculum
[13] = peptide 20 μM in virus inoculum
[14] = peptide 30 μM in virus inoculum
[15] = peptide 40 μM in virus inoculum

Row | Compound | activity against HIV, significance by ANOVA (in words) [1] | reduction in infectivity (HIV) [1] [%] | % Decrease in HIV p24 Production, Mean ± sd ([1]; peptide 10 μM) [%] | % Decrease in HIV p24 Production, Mean ± sd ([1]; peptide 20 μM) [%] | % Decrease in HIV p24 Production, Mean ± sd ([1]; peptide 30 μM) [%] | % Decrease in HIV p24 Production, Mean ± sd ([1]; peptide 40 μM) [%] | % Decrease in HIV p24 Production, Mean ± sd ([1]; peptide 50 μM) [%] | HSV1 plaque formation in Vero cells, Mean ± sd ([2]; peptide 5 μM) | HSV1 plaque formation in Vero cells, Mean ± sd ([2]; peptide 10 μM) | HSV1 plaque formation in Vero cells, Mean ± sd ([2]; peptide 20 μM) | HSV1 plaque formation in Vero cells, Mean ± sd ([2]; peptide 30 μM) | HSV1 plaque formation in Vero cells, Mean ± sd ([2]; peptide 40 μM) | IC50 [3] [µM] | efficacy for reducing HSV1 infectivity (in words) [3] | HSV2 plaque formation in HEp-2 cells, Mean ± sd ([4]; peptide 5 μM) | HSV2 plaque formation in HEp-2 cells, Mean ± sd ([4]; peptide 10 μM) | HSV2 plaque formation in HEp-2 cells, Mean ± sd ([4]; peptide 20 μM) | HSV2 plaque formation in HEp-2 cells, Mean ± sd ([4]; peptide 30 μM) | HSV2 plaque formation in HEp-2 cells, Mean ± sd ([4]; peptide 40 μM) | IC50 [5] [µM] | other results
1 | CC(C)C[C@H](NC(=O)[C@H](CC(C)C)NC(=O)[C@H](CCCNC(=N)N)NC(=O)[C@H](CCCCN)NC(=O)[C@H](CCCNC(=N)N)NC(=O)[C@H](CC(C)C)NC(=O)[C@H](CCCCN)NC(=O)[C@H](CCCNC(=N)N)NC(=O)[C@H](CC(C)C)NC(=O)[C@H](CC(C)C)NC(=O)[C@H](CC(C)C)NC(=O)[C@H](CCCNC(=N)N)NC(=O)[C@H](CCCCN)NC(=O)[C@H](CCCNC(=N)N)NC(=O)[C@H](CC(C)C)NC(=O)[C@H](CCCCN)NC(=O)[C@H](CCCNC(=N)N)NC(=O)[C@@H](N)CC(C)C)C(=O)O [GIN 1] (H-LRKLRKRLLLRKLRKRLL-OH) | significantly active | 95 | 83.94 ± 11.84 | 95.02 ± 1.89 | 90.78 ± 4.49 | 95.87 ± 0.81 | 94.79 ± 1.34 | 110 ± 13.2 | 81 ± 7.9 | 65 ± 2.6 | 66 ± 9.0 | 63 ± 6.6 | 16.5 | good efficacy | 141 ± 13.3 | 125 ± 8.7 | 77 ± 5.2 | 74 ± 2.9 | 57 ± 9.1 | – | % Decrease in HIV p24 Production, Exp. 1-3 ([1]; peptide 10 μM, listed as ApoE141-149dp): 91.66% and 70.31% and 89.85%; % Decrease in HIV p24 Production, Exp. 1-3 ([1]; peptide 20 μM, listed as ApoE141-149dp): 96.87% and 95.08% and 93.10%; % Decrease in HIV p24 Production, Exp. 1-3 ([1]; peptide 30 μM, listed as ApoE141-149dp): 95.94% and 88.63% and 87.77%; % Decrease in HIV p24 Production, Exp. 1-3 ([1]; peptide 40 μM, listed as ApoE141-149dp): 96.80% and 95.47% and 95.33%; % Decrease in HIV p24 Production, Exp. 1-3 ([1]; peptide 50 μM, listed as ApoE141-149dp): 95.73% and 93.25% and 95.38%; reduction in plaque number (HSV1) [2, 6]: 40%; HSV1 plaque formation in Vero cells, plaque count, wells 1-4 [2, 7]: 129 and 106 and 103 and 100; HSV1 plaque formation in Vero cells, plaque count, wells 1-4 [2, 8]: 73 and 87 and 76 and 89; HSV1 plaque formation in Vero cells, plaque count, wells 1-4 [2, 9]: 68 and 67 and 63; HSV1 plaque formation in Vero cells, plaque count, wells 1-4 [2, 10]: 72 and 71 and 56; HSV1 plaque formation in Vero cells, plaque count, wells 1-4 [2, 11]: 64 and 65 and 53 and 68; reduction in plaque number (HSV2) [4, 6]: 50%; HSV2 plaque formation in HEp-2 cells, plaque count, wells 1-4 [4, 7]: 160 and 134 and 140 and 130; HSV2 plaque formation in HEp-2 cells, plaque count, wells 1-4 [4, 8]: 125 and 113 and 131 and 132; HSV2 plaque formation in HEp-2 cells, plaque count, wells 1-4 [4, 9]: 82 and 72 and 73 and 81; HSV2 plaque formation in HEp-2 cells, plaque count, wells 1-4 [4, 10]: 76 and 77 and 71 and 72; HSV2 plaque formation in HEp-2 cells, plaque count, wells 1-4 [4, 11]: 51 and 59 and 69 and 49
2 | CC(=O)N[C@@H](Cc1c[nH]c2ccccc12)C(=O)N[C@@H](CCCNC(=N)N)C(=O)N[C@@H](CCCCN)C(=O)N[C@@H](Cc1c[nH]c2ccccc12)C(=O)N[C@@H](CCCNC(=N)N)C(=O)N[C@@H](CCCCN)C(=O)N[C@@H](CCCNC(=N)N)C(=O)N[C@@H](Cc1c[nH]c2ccccc12)C(=O)N[C@@H](Cc1c[nH]c2ccccc12)C(=O)N[C@@H](Cc1c[nH]c2ccccc12)C(=O)N[C@@H](CCCNC(=N)N)C(=O)N[C@@H](CCCCN)C(=O)N[C@@H](Cc1c[nH]c2ccccc12)C(=O)N[C@@H](CCCNC(=N)N)C(=O)N[C@@H](CCCCN)C(=O)N[C@@H](CCCNC(=N)N)C(=O)N[C@@H](Cc1c[nH]c2ccccc12)C(=O)N[C@@H](Cc1c[nH]c2ccccc12)C(N)=O [GIN 7] (Ac-WRKWRKRWWWRKWRKRWW-NH2) | – | – | – | – | – | – | – | – | – | – | – | – | – | – | – | – | – | – | – | < 3.3 | –
3 | CC(=O)N[C@@H](Cc1c[nH]c2ccccc12)C(=O)N[C@@H](CCCNC(=N)N)C(=O)N[C@@H](CCCCN)C(=O)N[C@@H](Cc1c[nH]c2ccccc12)C(=O)N[C@@H](CCCNC(=N)N)C(=O)N[C@@H](CCCCN)C(=O)N[C@@H](CCCNC(=N)N)C(=O)N[C@@H](Cc1c[nH]c2ccccc12)C(=O)N[C@@H](Cc1c[nH]c2ccccc12)C(=O)N[C@@H](CC(C)C)C(=O)N[C@@H](CCCNC(=N)N)C(=O)N[C@@H](CCCCN)C(=O)N[C@@H](CC(C)C)C(=O)N[C@@H](CCCNC(=N)N)C(=O)N[C@@H](CCCCN)C(=O)N[C@@H](CCCNC(=N)N)C(=O)N[C@@H](CC(C)C)C(=O)N[C@@H](CC(C)C)C(N)=O [GIN 34] (Ac-WRKWRKRWWLRKLRKRLL-NH2) | – | – | – | – | – | – | – | – | – | – | – | – | 6 | also had efficacy | – | – | – | – | – | < 3.3 | –
4 | CC(=O)N[C@@H](Cc1c[nH]c2ccccc12)C(=O)N[C@@H](CCCNC(=N)N)C(=O)N[C@@H](CCCCN)C(=O)N[C@@H](Cc1c[nH]c2ccccc12)C(=O)N[C@@H](CCCNC(=N)N)C(=O)N[C@@H](CCCCN)C(=O)N[C@@H](CCCNC(=N)N)C(=O)N[C@@H](Cc1c[nH]c2ccccc12)C(=O)N[C@@H](CCCNC(=N)N)C(=O)N[C@@H](CCCCN)C(=O)N[C@@H](Cc1c[nH]c2ccccc12)C(=O)N[C@@H](CCCNC(=N)N)C(=O)N[C@@H](CCCCN)C(=O)N[C@@H](CCCNC(=N)N)C(=O)N[C@@H](Cc1c[nH]c2ccccc12)C(N)=O [MU 59] (Ac-WRKWRKRWRKWRKRW-NH2) | – | – | – | – | – | – | – | – | – | – | – | – | 9.75 | – | – | – | – | – | – | 10 | –
5 | ApoE263-286: apoE263-286 peptide tested alongside apoE141-149dp in Example 1 (SWFEPLVEDMQRQWAGLVEKVQAA; UniProt P02649 281-304, looked up, fragment) [reference compound] | did not reach significance | 20 | 23.21 ± 12.79 | 22.77 ± 13.07 | 35.85 ± 7.21 | 38.87 ± 12.70 | 40.16 ± 6.25 | 120 ± 5.5 | 114 ± 11.1 | 127 ± 17.0 | 121 ± 11.2 | 126 ± 11.2 | – | – | 152 ± 12.0 | 141 ± 16.1 | 146 ± 27.3 | 124 ± 24.2 | 131 ± 24.2 | – | % Decrease in HIV p24 Production, Exp. 1-3 ([1]; peptide 30 μM): 37.94% and 27.83% and 41.78%; % Decrease in HIV p24 Production, Exp. 1-3 ([1]; peptide 50 μM): 33.36% and 41.45% and 45.66%; HSV1 plaque formation in Vero cells, plaque count, wells 1-4 ([2]; peptide 5 μM in virus inoculum): 113 and 119 and 122 and 126; HSV1 plaque formation in Vero cells, plaque count, wells 1-4 [2, 12]: 116 and 124 and 102; HSV1 plaque formation in Vero cells, plaque count, wells 1-4 [2, 13]: 148 and 112 and 133 and 114; HSV1 plaque formation in Vero cells, plaque count, wells 1-4 [2, 14]: 134 and 109 and 114 and 125; HSV1 plaque formation in Vero cells, plaque count, wells 1-4 [2, 15]: 120 and 113 and 125 and 144; HSV2 plaque formation in HEp-2 cells, plaque count, wells 1-4 ([4]; peptide 5 μM in virus inoculum): 135 and 160 and 161 and 152; HSV2 plaque formation in HEp-2 cells, plaque count, wells 1-4 [4, 12]: 157 and 121 and 151 and 134; HSV2 plaque formation in HEp-2 cells, plaque count, wells 1-4 [4, 13]: 118 and 150 and 182 and 134; HSV2 plaque formation in HEp-2 cells, plaque count, wells 1-4 [4, 14]: 118 and 117 and 103 and 159; HSV2 plaque formation in HEp-2 cells, plaque count, wells 1-4 [4, 15]: 132 and 144 and 125 and 124
